Results taken from US10173991B2, “Sulfone amide linked benzothiazole inhibitors of endothelial lipase” (BRISTOL-MYERS SQUIBB COMPANY, priority 2014, dated 2019).

target: Endothelial lipase (EL) (Homo sapiens (Human), UniProt Q9Y5X9); assay: Endothelial lipase (EL) enzymatic assay with fluorescent substrate A10070 in DMPG vesicles; type: biochemical
Summary of the method: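 Compounds were preincubated with enzyme for 30 min at 37° C before FRET-substrate vesicles (A10070 in DMPG, 0.11 mole fraction) were added. Reaction rates were obtained from the 300–900 sec slope of fluorescence at 490/530 nm.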

Chain of Endothelial lipase (EL) (Q9Y5X9 21-500): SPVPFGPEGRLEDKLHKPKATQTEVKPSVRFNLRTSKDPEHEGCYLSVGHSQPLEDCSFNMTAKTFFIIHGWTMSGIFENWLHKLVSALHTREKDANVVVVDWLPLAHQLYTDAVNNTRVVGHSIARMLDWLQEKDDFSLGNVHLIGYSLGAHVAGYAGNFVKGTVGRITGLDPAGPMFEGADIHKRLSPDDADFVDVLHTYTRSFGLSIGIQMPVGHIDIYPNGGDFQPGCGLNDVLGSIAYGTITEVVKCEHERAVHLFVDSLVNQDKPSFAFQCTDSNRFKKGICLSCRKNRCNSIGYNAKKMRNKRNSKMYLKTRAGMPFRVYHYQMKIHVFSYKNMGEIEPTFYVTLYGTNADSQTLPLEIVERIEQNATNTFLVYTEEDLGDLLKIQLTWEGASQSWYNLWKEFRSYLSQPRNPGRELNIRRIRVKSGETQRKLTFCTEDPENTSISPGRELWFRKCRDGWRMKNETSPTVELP

IC50 [nM]	Structure (SMILES)
2	COCCS(=O)(=O)C(C(=O)NCC(=O)NC1CC1)c1nc2cc(C)c(-c3ccc4[nH]c(=O)ccc4c3)cc2s1 (centres unmarked) [Example 151, N-[(cyclopropyl-carbamoyl)methyl]-2-(2-methoxyethane-sulfonyl)-2-[5-methyl-6-(2-oxo-1,2-dihydroquinolin-6-yl)-1,3-benzothiazol-2-yl]acetamide]
3	COCCS(=O)(=O)C(C(=O)NCC(=O)NC1CC1)c1nc2cc(F)c(-c3ccc4c(cnn4C)c3)cc2s1 (centres unmarked) [Example 152, N-[(cyclopropyl-carbamoyl)methyl]-2-[5-fluoro-6-(1-methyl-1H-indazol-5-yl)-1,3-methoxyethane-sulfonyl) acetamide]
3	COCCS(=O)(=O)C(C(=O)NCC(=O)NC1CC1)c1nc2cc(F)c(-c3ccc4c(=O)n(C)ccc4c3)cc2s1 (centres unmarked) [Example 153, N-[(cyclopropyl-carbamoyl)methyl]-2-[5-fluoro-6-(2-methyl-1-oxo-1,2-dihydro-isoquinolin-6-yl)-1,3-benzothiazol-2-yl]-2-(2-methoxyethane-sulfonyl) acetamide]
5	COCCS(=O)(=O)C(C(=O)NCC(=O)NC1CC1)c1nc2cc(F)c(-c3ccc4c(c3)C(=O)NC4)cc2s1 (centres unmarked) [Example 154, N-[(cyclopropyl-carbamoyl)methyl]-2-[5-fluoro-6-(3-oxo-2,3-dihydro-1H-isoindol-5-yl)-1,3-benzothiazol-2-yl]-2-(2-methoxyethane-sulfonyl) acetamide]
7	COCCS(=O)(=O)C(C(=O)NCC(=O)NC1CC1)c1nc2cc(F)c(-c3cnc(C4CC4)nc3)cc2s1 (centres unmarked) [Example 155, N-[(cyclopropyl-carbamoyl)methyl]-2-[6-(2-cyclopropyl-pyrimidin-5-yl)-5-fluoro-1,3-benzothiazol-2-yl]-2-(2-methoxyethane-sulfonyl) acetamide]
11	COCCS(=O)(=O)C(C(=O)NCC(=O)NC1CC1)c1nc2cc(F)c(-c3cnc(C)nc3)cc2s1 (centres unmarked) [Example 156, N-[(cyclopropyl-carbamoyl)methyl]-2-[5-fluoro-6-(2-methylpyrimidin-5-yl)-1,3-benzothiazol-2-yl]-2-(2-methoxyethane-sulfonyl) acetamide]
11	COCCS(=O)(=O)C(C(=O)NCC(=O)NC1CC1)c1nc2cc(C(F)(F)F)c(-c3cccc(C(=O)N(C)C)c3)cc2s1 (centres unmarked) [Example 157, 3-[2-({[(cyclopropyl-carbamoyl)methyl]carbamoyl}(2-methoxyethane-sulfonyl)methyl)-5-(trifluoromethyl)-1,3-benzothiazol-6-yl]-N,N-dimethylbenzamide]
11	COCCS(=O)(=O)C(C(=O)NCC(=O)NC1CC1)c1nc2cc(F)c(-c3ccc(C)nc3)cc2s1 (centres unmarked) [Example 158, N-[(cyclopropyl-carbamoyl)methyl]-2-[5-fluoro-6-(6-methylpyridin-3-yl)-1,3-benzothiazol-2-yl]-2-(2-methoxyethane-sulfonyl) acetamide]
12	COCCS(=O)(=O)C(C(=O)NCC(=O)NC1CC1)c1nc2cc(F)c(-c3ccc(C4CC4)nc3)cc2s1 (centres unmarked) [Example 159, N-[(cyclopropyl-carbamoyl)methyl]-2-[6-(6-cyclopropyl-pyridin-3-yl)-5-fluoro-1,3-benzothiazol-2-yl]-2-(2-methoxyethane-sulfonyl) acetamide]
12	COCCS(=O)(=O)C(C(=O)NCC(=O)NC1CC1)c1nc2cc(F)c(-c3ccc(=O)n(C(C)C)c3)cc2s1 (centres unmarked) [Example 160, N-[(cyclopropyl-carbamoyl)methyl]-2-{5-fluoro-6-[6-oxo-1-(propan-2-yl)-1,6-dihydropyridin-3-yl]-1,3-benzothiazol-2-yl}-2-(2-methoxyethane-sulfonyl) acetamide]
14	COCCS(=O)(=O)C(C(=O)NCC(=O)NC1CC1)c1nc2cc(F)c(-c3ccc(C(=O)N4CCOCC4)cc3)cc2s1 (centres unmarked) [Example 161, N-[(cyclopropyl-carbamoyl)methyl]-2-{5-fluoro-6-[4-(morpholine-4-carbonyl)phenyl]-1,3-benzothiazol-2-yl}-2-(2-methoxyethane-sulfonyl) acetamide]
16	COCCS(=O)(=O)C(C(=O)NCC(=O)NC1CC1)c1nc2cc(C(F)(F)F)c(-c3ccnn3C)cc2s1 (centres unmarked) [Example 162, N-[(cyclopropyl-carbamoyl)methyl]-2-(2-methoxyethane-sulfonyl)-2-[6-(1-methyl-1H-pyrazol-5-yl)-5-(trifluoromethyl)-1,3-benzothiazol-2-yl]acetamide]
16	COCCS(=O)(=O)C(C(=O)NCC(=O)NC1CC1)c1nc2cc(C)c(-c3cnc(C4CC4)nc3)cc2s1 (centres unmarked) [Example 163, N-[(cyclopropyl-carbamoyl)methyl]-2-[6-(2-cyclopropyl-pyrimidin-5-yl)-5-methyl-1,3-benzothiazol-2-yl]-2-(2-methoxyethane-sulfonyl) acetamide]
17	COCCS(=O)(=O)C(C(=O)NCC(=O)NC1CC1)c1nc2cc(C(F)(F)F)c(-c3ccc(C4CC4)nc3)cc2s1 (centres unmarked) [Example 164, N-[(cyclopropyl-carbamoyl)methyl]-2-[6-(6-cyclopropyl-pyridin-3-yl)-5-(trifluoromethyl)-1,3-benzothiazol-2-yl]-2-(2-methoxyethane-sulfonyl) acetamide]
18	COCCS(=O)(=O)C(C(=O)NCC(=O)NC1CC1)c1nc2cc(C(F)(F)F)c(Br)cc2s1 (centres unmarked) [Example 165, 2-[6-bromo-5-(trifluoromethyl)-1,3-benzothiazol-2-yl]-N-[(cyclopropyl-carbamoyl)methyl]-2-(2-methoxyethane-sulfonyl) acetamide]
20	COCCS(=O)(=O)C(C(=O)NCC(=O)NC1CC1)c1nc2cc(C(F)(F)F)c(-c3ccc(C(=O)N4CCOCC4)cc3)cc2s1 (centres unmarked) [Example 166, N-[(cyclopropyl-carbamoyl)methyl]-2-(2-methoxyethane-sulfonyl)-2-{6-[4-(morpholine-4-arbonyl)phenyl]-5-(trifluoromethyl)-1,3-benzothiazol-2-yl}acetamide]
23	COCCS(=O)(=O)C(C(=O)NCC(=O)NC1CC1)c1nc2cc(F)c(-c3ccnn3C)cc2s1 (centres unmarked) [Example 167, N-[(cyclopropyl-carbamoyl)methyl]-2-[5-fluoro-6-(1-methyl-1H-pyrazol-5-yl)-1,3-benzothiazol-2-yl]-2-(2-methoxyethane-sulfonyl) acetamide]
24	CC(C)S(=O)(=O)C(C(=O)NCC(=O)NC1CC1)c1nc2cc(C(F)(F)F)c(-c3ccc(C(=O)N4CCOCC4)cc3)cc2s1 (centres unmarked) [Example 168, N-[(cyclopropyl-carbamoyl)methyl]-2-{6-[4-(morpholine-4-carbonyl)phenyl]-5-(trifluoromethyl)-1,3-benzothiazol-2-yl}-2-(propane-2-sulfonyl) acetamide]
26	CC(C)S(=O)(=O)C(C(=O)NCC(=O)NC1CC1)c1nc2cc(C(F)(F)F)c(-c3ccccc3)cc2s1 (centres unmarked) [Example 169, N-[(cyclopropyl-carbamoyl)methyl]-2-[6-phenyl-5-(trifluoromethyl)-1,3-benzothiazol-2-yl]-2-(propane-2-sulfonyl) acetamide]
27	CC(C)S(=O)(=O)C(C(=O)NCC(=O)NC1CC1)c1nc2cc(C(F)(F)F)c(-c3ccc(F)nc3)cc2s1 (centres unmarked) [Example 170, N-[(cyclopropyl-carbamoyl)methyl]-2-[6-(6-fluoropyridin-3-yl)-5-(trifluoromethyl)-1,3-benzothiazol-2-yl]-2-(propane-2-sulfonyl) acetamide]
